Reference: US20220251036A1, “DIFLUOROHALOALLYLAMINE SULFONE DERIVATIVE INHIBITORS OF LYSYL OXIDASES, METHODS OF PREPARATION, AND USES THEREOF” (PHARMAXIS LTD., priority 2019, published 2022)

Experiments:
[1] = Ultraviolet (UV) absorbance; format: physicochemical; settings: from 290 nm to 680 nm, Shimadzu LCMS 2020
Text: Minimising UV light absorption of drugs may avoid risk of phototoxicity and photoallergy. For induction of phototoxicity and/or photoallergy, a chemical must absorb light within the range of natural sunlight (290 to 700 nm). Therefore, compounds with no absorbance across the natural sunlight spectrum are advantageous.

LOX = assay: Lysyl oxidase activity in rat skin after topical administration; format: in vivo; settings: for dorsal skin LOX activity compared to the placebos: rats, topical
Method: Dorsal and ventral skin from rats treated by topical application of compound 1 were semi-defrosted at ice-cold temperature and three 3 mm punches of the skin were taken using a tissue puncher. The core sample was microdissected to leave only the epidermal and dermal layers. All other layers were removed. […] The tissue punch was placed in a 1.5 mL Eppendorf tube and snap-frozen in liquid nitrogen. A mortar and pestle stored at −80° C. was then used to pulverize skin tissue. The pulverized sample was further washed in 1 mL of ice-cold washing buffer ((0.15 M NaCl, 50 mM sodium borate, pH 8.0, with PMSF: Sigma P7626, 0.25 mM, and Aprotinin: Sigma A6279, 1 μL per mL). The tissue buffer was centrifuged (20000 g for 10 minutes at 4° C.), and the supernatant was discarded. Fresh wash buffer (1 mL) was added and the Eppendorf tube was agitated for 5 minutes at 4° C. on a vortex shaker. Washing was repeated two more times. After the last wash, the supernatant was completely removed. The rat dorsal skin pellet was re-suspended in 6 M urea 50 mM sodium borate buffer, according to sample weight to achieve final urea concentration of 4.5 M. The extraction buffer contains protease inhibitors; aprotinin and PMSF as above. Each homogenate was well-mixed by continuous vortexing at 4° C. for a 3 hour extraction. After 3 hours, […] 50 mM sodium borate buffer was added to each sample according to sample size to achieve the final urea concentration of 2.4 M. Protease inhibitors—aprotinin and PMSF—are present. The mixture was again centrifuged at (20000 g at 4° C. for 10 minutes) and the supernatant was collected in a clean, cold eppendorf. To 50 μl of sample, pargyline (final concentration at 0.5 mM) and mofegiline (final concentration at 1 μM) were added. Enzyme mix (25 μL) was transferred to the test plate with or without […] (0.5 μl 30 mM) and incubated at 37° C. for 30 minutes. Reaction mix (25 μL) is added to each well, plate fluorescence is measured every 2.5′ with or without 100 μM BAPN for the low controls (Ex: 544 nm/Em: 590 nm/gain: 1260 at 37° C.).

scars = assay: Excision injury model in pigs; format: in vivo; settings: daily for 12 weeks
Method: Eight full thickness excisions (5×2 cm^2) were made on 5 female juvenile pigs (each weighing 18-20 kg) for a total of 40 injury sites. The entire epidermis and dermal layers of skin were removed by a plastic surgeon in one operation under anaesthesia leaving excisions approximately 5-8 mm in depth. Wounds were dressed and anti-anxiety jackets (Thundershirt; RSPCA) provided to cover wounds. Analgesia was given—buprenorphine injection and fentanyl patch (50 μg/hr) for 10 days, post-surgery—and animals were allowed to recover. The dressings were changed at regular intervals to protect the wounds and prevent infection. Daily treatment started 14 days post-surgery and continued for 12 weeks. […] The surgeons ranked scars in each set of 4 from best to worst (0-3) and the scores for each scar were added and analysed.

[2] = Skin permeability, Franz diffusion cell system; format: in vitro ADME, human; settings: topical formulation containing 3% compound; for Concentration of Compound 1 in the receptor chamber: human skin
Text: Skin permeability is essential when considering topical application to treat skin conditions. One way to evaluate skin permeability is to use a Franz diffusion cell system with human skin as a membrane (Particle Sciences; Technical Brief 2009; Vol. 10). The donor compound, topically formulated, is applied on the top chamber and diffusion through the skin is monitored at relevant time points by sampling the solution in the receptor chamber via the sampling port. The concentration of Compound 1 was determined by quantitative HPLC analysis.

skin fibrosis = assay: Mouse model of sclerosis (bleomycin-induced skin fibrosis); format: in vivo, male C57BL/6; settings: […] in a topical formulation from day 3, histology after 21 days
Method: Subcutaneous bleomycin (0.1 U/kg) was administered every second day (for 21 days total) to male C57BL/6 to induced skin fibrosis as a model of sclerosis. […] Histology was completed after 21 days.

[3] = Chemical stability in topical formulation; format: physicochemical
Text: The stability of a drug product formulation can have a significant impact on the length and cost of drug development, the nature of the studies required to support regulatory submissions, and, ultimately, safety and approvability. It is important to minimize the amount of impurities or degradation products that form over time due to interactions between the various ingredients in a formulation. This can be particularly important in compositions that are designed to increase skin permeability.

**Q.** Which UV absorbance [1] does the source give for `NC/C=C(\F)C(F)(F)S(=O)(=O)c1ccccc1` [Compound 1, (Z)-3,4,4-trifluoro-4-(phenylsulfonyl)but-2-en-1-amine] here?
**A.** The UV absorbance was “no absorbance”.

**Q.** And the “dorsal skin LOX activity compared to the placebos” value (LOX; cream containing 1% Compound 1, 400 mg/rat)?
**A.** The value was “significantly lower”.

**Q.** What about the “dorsal skin LOX activity compared to the placebos” value (LOX; cream containing 3% Compound 1, 200 mg/rat) of the same compound?
**A.** The value was “significantly lower”.

**Q.** What about the “LOX activity in the skin of rats” value (LOX; topical application of cream versus control (FIG. 3)) of the same compound?
**A.** Its value is “reduction”.

**Q.** What about the scar appearance (scars; pigs, 0, 0.5, 1.5 and 3% oil in water cream) of the same compound?
**A.** The scar appearance was “substantial, dose-dependent improvement”.

**Q.** What about the “scar visible versus control scars” value (scars; pigs, 3% oil in water cream) of the same compound?
**A.** Its value is “significantly less scar visible”.

**Q.** And the “Concentration of Compound 1 in the receptor chamber” value (from here on “Concentration”) ([2]; 0 hr)?
**A.** The value was 0 nM.

**Q.** What about the “Concentration” value ([2]; 2 hr) of the same compound?
**A.** The value was 17 nM.

**Q.** And the “Concentration” value ([2]; 4 hr)?
**A.** Its value is 42 nM.

**Q.** What about the “Concentration” value ([2]; 6 hr) of the same compound?
**A.** Its value is 166 nM.

**Q.** And the “Concentration” value ([2]; 20 hr)?
**A.** Its value is 1742 nM.

**Q.** What about the “permeability and diffusion across the membrane (in words)” value ([2]; time dependent) of the same compound?
**A.** The value was “good permeability and diffusion”.

**Q.** And the “average LOX score” value (skin fibrosis)?
**A.** The value was “significant improvement”.

**Q.** What about the average collagen score (skin fibrosis) of the same compound?
**A.** The average collagen score was “significant improvement”.

**Q.** What about the composite skin score (skin fibrosis) of the same compound?
**A.** Its composite skin score is “significant improvement”.

**Q.** What about the “% Area at 265 nm” value ([3]; 6% in formulation 2, 2-8° C., 161 days) of the same compound?
**A.** Its value is 100.00 % Area.

**Q.** What about the “% Area at 265 nm” value ([3]; 6% in formulation 2, 40° C., 161 days) of the same compound?
**A.** Its value is 99.66 % Area.

**Q.** What about the “% Area at 265 nm” value ([3]; 6% in formulation 2, reference sample) of the same compound?
**A.** Its value is 100.00 % Area.

**Q.** What about the “% Area at 265 nm” value ([3]; 6% in formulation 2, rt, 161 days) of the same compound?
**A.** The value was 100.00 % Area.

**Q.** What about the “% Area at 265 nm” value ([3]; 8% in formulation 2, 2-8° C., 161 days) of the same compound?
**A.** Its value is 99.91 % Area.

**Q.** And the “% Area at 265 nm” value ([3]; 8% in formulation 2, 40° C., 161 days)?
**A.** The value was 99.36 % Area.

**Q.** What about the “% Area at 265 nm” value ([3]; 8% in formulation 2, reference sample) of the same compound?
**A.** The value was 100.00 % Area.

**Q.** What about the “% Area at 265 nm” value ([3]; 8% in formulation 2, rt, 161 days) of the same compound?
**A.** Its value is 99.74 % Area.

**Q.** What about the compound peak percentage ([3]; topical formulation 2, all the tested conditions) of the same compound?
**A.** The compound peak percentage was “above 99.5%”.
